Reference: patent US7041638B2, “Surfactant prevention of vaginitis and lung complications from cancer chemotherapy” (The Penn State Research Foundation, priority 2001, dated 2006)
Like-named read-outs stand apart in the source and are kept apart here.

Experiments:
Assay type in all cases: cell-based, human
THP-1 cells [1] = assay: Cytokine production by differentiated THP-1 cells after SP-A, bleomycin or Ara-C (ELISA); details: for TNF-α level in culture medium: mean±SEM, FIG. 3A
Protocol: (§1) The THP-1 cell line was obtained from the American Type Culture Collection. Cells were grown in RPMI 1640 medium (Sigma) with 0.05 mM 2-mercaptoethanol containing 10% fetal calf serum (FCS; Summit Biotechnology) at 37° C. in an atmosphere of 5% CO2. The cells were split periodically and used at passages 8–15 in the various experiments. After differentiation with 10^−8 M Vitamin D3 for 72 h, cells were pelleted and washed with cold PBS. The cell pellet was then resuspended in complete RPMI 1640 medium with 10% FCS at a density of 2×10^6 cells/ml in 24-well culture plates, and exposed to bleomycin and SP-A. Cell viability was determined by trypan blue exclusion. […] Incubations were terminated by pelleting the cells. Supernatants and/or cell pellet were stored at −80° C. until assayed.
(§2) After differentiation with 10^−8 M of vitamin D3 for 72 h, THP-1 cells were pelleted and washed as described above. Cells at a density of 2×10^6 cells/ml were incubated at 24 well culture plates. For dose-response study, cells were stimulated with bleomycin at concentrations ranging from 0–100 mU/ml. Time-dependent secretion of cytokines following bleomycin treatment was studied from 0–24 h with 5 and 50 mU/ml of bleomycin. In experiments where the combined effects of SP-A and bleomycin were examined, SP-A (10 μg/ml) and bleomycin (5 or 50 mU/ml) were added to cells simultaneously, unless otherwise noted. After treatment, the culture medium was collected at 4 h or 6 h for the ELISA assay of cytokine production and cells were harvested at 2 h or 4 h for cytokine mRNA analysis.
Cytosine arabinoside (Ara-C, Cytosar-U, Pharmacia & Upjohn) was included in some experiments to confirm the specificity of the effect of bleomycin on proinflammatory cytokine production by THP-1 cells. Ara-C is another antineoplastic agent with known cytotoxicity. […] Ara-C, at concentrations ranging from 0.1 to 5 mM in culture medium, was used for evaluating the effect of Ara-C on TNF-α. The conditions employed in the Ara-C experiments were the same as those in bleomycin studies except that only a 4 h time point was done.
The ELISA assays for TNF-α, IL-8, and IL-1β (OptEIA Human ELISA Sets, Pharmingen) were performed according to the instructions recommended by the manufacturer. The ELISA kits were capable of measuring levels of 7.8–500 pg/ml for TNF-α, 6.2–400 pg/ml for IL-8 and 20–1000 pg/ml for IL-1β. A reference curve for each of these cytokines was obtained by plotting the concentration of several dilutions of standard protein versus the corresponding absorbance.

THP-1 cells [2] = assay: Cytokine mRNA in THP-1 cells by ribonuclease protection assay (RPA); details: for relative intensity of TNF-α mRNA / IL-8 mRNA level: SP-A 10 μg/ml and/or bleomycin 5 mU/ml, normalized to L32; for relative intensity of TNF-α mRNA: FIG. 4A; for IL-8 mRNA level: 4 h, FIG. 4B
Protocol: as §2
Total RNA was isolated from THP-1 cells at 2 h or 4 h after treatment by using Rneasy Mini Kits (QIAGEN) according to the protocol of the RNeasy Mini Handbook. Cytokine mRNA quantification was performed by ribonuclease protection assay (RPA). RiboQuant™ Ribonuclease RPA Starter Package and a Customized Human Template Set (Pharmingen) were used to analyze TNF-α, IL-1β, and IL-8 mRNA in one assay. The customized template set contains DNA templates that can be used for T7 RNA polymerase-directed synthesis of α-^32P-UTP-labeled, anti-sense RNA probes. These can be hybridized to TNF-α, IL-1β, and IL-8 mRNA. Templates for the L32 and GAPDH housekeeping genes were also included to allow for normalization of sampling or technical error. Aliquots of 2 μg of total RNA were hybridized with radiolabeled probes at 56° C. for 16 h. RNase treatment followed, resulting in degradation of single-stranded RNA and free probes. After inactivation and precipitation, protected probes were resolved by a 5% polyacrylamide-urea sequence gel electrophoresis and visualized by autoradiography. Densities of the protected bands were quantified by soft laser densitometry. The mRNA level is expressed as the ratio of the densitometric value of each cytokine mRNA to that of the L32 or GAPDH mRNA.

THP-1 cells [3] = assay: Cell viability by trypan blue exclusion
Protocol: as §1

[4] = SP-A 10 μg/ml and/or bleomycin 5 mU/ml, 4 h

| Compound | lowest bleomycin concentration that increased TNF-α level (THP-1 cells [1]; 4 h, dose range 0–100 mU/ml, FIG. 1A) | lowest bleomycin concentration that increased IL-8 level (THP-1 cells [1]; 4 h, dose range 0–100 mU/ml, FIG. 1B) | bleomycin concentration needed to increase IL-1β level significantly (THP-1 cells [1]; 6 h, dose range 0–100 mU/ml, FIG. 1C) | TNF-α level in culture medium (THP-1 cells [1]; [4]) | time to maximum TNF-α level (THP-1 cells [1]; bleomycin 5, 50 mU/ml, depending on dose, FIG. 2A) | time at which increase of TNF-α levels was detected (THP-1 cells [1]; bleomycin 5, 50 mU/ml, 0–24 h, FIG. 2A) | time at which TNF-α returned to background levels (THP-1 cells [1]; bleomycin 5, 50 mU/ml, FIG. 2A) | time to maximal IL-8 level (THP-1 cells [1]; bleomycin 5, 50 mU/ml, FIG. 2B) | time to peak IL-1β level (THP-1 cells [1]; bleomycin 5, 50 mU/ml, FIG. 2C) | TNF-α level in culture medium (THP-1 cells [1]; bleomycin 50 mU/ml with or without SP-A 10 μg/ml, 4 h) | relative intensity of TNF-α mRNA (THP-1 cells [2]; 2 h) | relative intensity of IL-1β mRNA (THP-1 cells [2]; 2 h, SP-A 10 μg/ml, bleomycin 5 mU/ml, LPS 0.1 ng/ml) | IL-8 mRNA level (THP-1 cells [2]) | effect on the viability of THP-1 cells (THP-1 cells [3]; conditions employed in this study) | effect on the viability of THP-1 cells (THP-1 cells [3]) | TNF-α level after Ara-C treatment versus control (THP-1 cells [1]; Ara-C 0.1 to 5 mM, 4 h, FIG. 1D) |
| --- | --- | --- | --- | --- | --- | --- | --- | --- | --- | --- | --- | --- | --- | --- | --- | --- |
| bleomycin | 0.5 mU/ml | 0.5 mU/ml | 50 mU/ml | 45.9 ± 10.6 pg/mL | 4 to 6 h | 3 h | 24 h | around 5 h | 10 h | 82.1 ± 17.3 pg/mL | 0.74±0.20 | Very low levels | 1.02±0.16 | neither bleomycin nor SP-A appeared to have any effect |  |  |
| SP-A: native human surfactant protein A purified from bronchoalveolar lavage of alveolar proteinosis patients |  |  |  | 86.6 ± 11.5 pg/mL |  |  |  |  |  |  | 0.51±0.27 |  | 1.26±0.14 |  | neither bleomycin nor SP-A appeared to have any effect |  |
| Nc1ccn([C@@H]2O[C@H](CO)[C@@H](O)[C@@H]2O)c(=O)n1 [Ara-C, Cytosine arabinoside] |  |  |  |  |  |  |  |  |  |  |  |  |  |  |  | did not differ from that of control |
